These results are taken from patent US20210238187A1, “AZIRIDINE CONTAINING EPOTHILONE ANALOGS, METHODS OF SYNTHESIS, METHODS OF TREATMENT, AND DRUG CONJUGATES” (WILLIAM MARSH RICE UNIVERSITY, priority 2017, published 2021).

SMILES strings stand for the structures.

A word on the EC50: it is the midpoint of the concentration-response curve. Higher therefore signals a less potent agent. In general, IC50 refers to the concentration at which inhibition is half-maximal.

In one assay the test system is Tubulin. As to the kind of experiment: Tubulin assembly induction. Format: biochemical. As to conditions: […].
For a further assay, the system named is MCF-7. Kind of assay: Cytotoxicity (GI50) assay, MCF-7. It is filed as cell-based, human. As to conditions: Homo sapiens, MCF7, read-out: Cancer cell lines GI50, MCF-7.
A further assay relates to OVCAR-8. As to the kind of experiment: Cytotoxicity (GI50) assay, OVCAR-8. Format: cell-based, human. As to conditions: Homo sapiens, OVCAR-8, read-out: Cancer cell lines GI50, OVCAR-8.
The next assay concerns NCI/ADR-RES. Kind of assay: Cytotoxicity (GI50) assay, NCI/ADR-RES. Format: cell-based, human. The conditions noted are these: Homo sapiens, NCI/ADR-RES, read-out: Cancer cell lines GI50, NCI/ADR-RES.
The next assay deals with MDA-MB-435. Kind of assay: Cytotoxicity (GI50) assay, MDA-MB-435. Format: cell-based, human. As to conditions: Homo sapiens, MDA-MB-435, read-out: Cancer cell lines GI50, MDA-MB-435.
The next assay concerns SNB-75. Kind of assay: Cytotoxicity (GI50) assay, SNB-75. As to conditions: Homo sapiens, SNB-75, read-out: Cancer cell lines GI50, SNB-75. It is filed as cell-based, human.
The subject of another assay is MES SA. As to the kind of experiment: Cytotoxicity assay (CellTiter-Glo), MES SA. It is filed as cell-based, human. As to conditions: Homo sapiens, MES-SA, 72 h, read-out: Cancer cell lines IC50, MES SA. (In general: ATP-based viability assays read luminescence as a measure of living cells.)
The subject of a further assay is MES SA DX. Kind of assay: Cytotoxicity assay (CellTiter-Glo), MES SA DX. It is filed as cell-based, human. As to conditions: Homo sapiens, MES-SA, 72 h, read-out: Cancer cell lines IC50, MES SA DX.
The subject of a further assay is HEK 293T. Kind of assay: Cytotoxicity assay (CellTiter-Glo), HEK 293T. The conditions noted are these: Homo sapiens, 72 h, read-out: Cancer cell lines IC50, HEK 293T. It is filed as cell-based.

With `CC(=O)[C@@H]1C[C@@H]2N[C@]2(C)CCC[C@H](C)[C@H](O)[C@@H](C)C(=O)C(C)(C)[C@@H](O)CC(=O)O1` [compound 79, (1S,3S,7S,10R,11S,12S,16R)-3-Acetyl-7,11-dihydroxy-8,8,10,12,16-pentamethyl-4-oxa-17-azabicyclo[14.1.0]heptadecane-5,9-dione], the EC50 in the assay with Tubulin was above 60000 nM. In addition, the GI50 in the assay with MCF-7, in the assay on OVCAR-8, with NCI/ADR-RES, in the assay on MDA-MB-435 and with SNB-75 was above 5000 nM in each case. In addition, the IC50 with MES SA, in the assay with MES SA DX and in the assay on HEK 293T was above 2500 nM in each case.

In the assay with Tubulin, `CC(=O)OCCN1[C@H]2C[C@@H](/C(C)=C/c3ccn(Cn4cccn4)n3)OC(=O)C[C@H](O)C(C)(C)C(=O)[C@H](C)[C@@H](O)[C@@H](C)CCC[C@]21C` (stereo partly drawn) [compound 26, 2-[(1S,3S,7S,10R,11S,12S,16R)-7,11-Dihydroxy-8,8,10,12,16-pentamethyl-5,9-dioxo-3-{(1E)-1-[1-(1H-pyrazol-1-ylmethyl)-1H-pyrazol-3-yl]prop-1-en-2-yl}-4-oxa-17-azabicyclo[14.1.0]heptadec-17-yl]ethyl acetate] yielded an EC50 of 40000 nM. Besides, the GI50 was 38 nM in the assay with MCF-7; 38 nM with OVCAR-8; 2700 nM with NCI/ADR-RES; 5.5 nM in the assay with MDA-MB-435; 50 nM in the assay on SNB-75. Besides, the IC50 in the assay with MES SA was 5.9 nM; with MES SA DX it was above 400 nM; with HEK 293T, 1.72 nM.

`CSc1cc(/C=C(\C)[C@@H]2C[C@@H]3N[C@]3(C)CCC[C@H](C)[C@H](O)[C@@H](C)C(=O)C(C)(C)[C@@H](O)CC(=O)O2)nn1C` [compound 40, (1S,3S,7S,10R,11S,12S,16R)-7,11-Dihydroxy-8,8,10,12,16-pentamethyl-3-{(1E)-1-[1-methyl-5-(methylsulfanyl)-1H-pyrazol-3-yl]prop-1-en-2-yl}-4-oxa-17-azabicyclo[14.1.0]heptadecane-5,9-dione] returned an EC50 in the assay on Tubulin of 19000 nM. The GI50 with MCF-7 is 3.5 nM; with OVCAR-8, 100 nM; in the assay with NCI/ADR-RES, 140 nM; in the assay with MDA-MB-435 it was 3.5 nM; in the assay on SNB-75, 14 nM. Also, the IC50 came to 0.36 nM in the assay on MES SA, 41.6 nM in the assay with MES SA DX and 0.59 nM with HEK 293T.

Consider `CSc1nc(/C=C(\C)[C@@H]2C[C@@H]3N(CCOC(C)=O)[C@]3(C)CCC[C@H](C)[C@H](OC(C)=O)[C@@H](C)C(=O)C(C)(C)[C@@H](OC(C)=O)CC(=O)O2)co1` (stereo partly drawn) [compound 18, (1S,3S,7S,10R,11S,12S,16R)-17-(2-Acetoxyethyl)-8,8,10,12,16-pentamethyl-3-{(1E)-1-[2-(methylsulfanyl)-1,3-oxazol-4-yl]prop-1-en-2-yl}-5,9-dioxo-4-oxa-17-azabicyclo[14.1.0]-heptadecane-7,11-diyl diacetate], for which the EC50 in the assay on Tubulin is above 60000 nM. For the same molecule, the GI50 with MCF-7 turned out to be 1100 nM; in the assay on OVCAR-8, 290 nM; with NCI/ADR-RES it was 2300 nM; in the assay on MDA-MB-435, 120 nM; in the assay on SNB-75, 290 nM. The IC50 with MES SA was 116 nM; with MES SA DX, 373 nM; in the assay on HEK 293T, 17.9 nM.

As to `C/C(=C\c1cnon1)[C@@H]1C[C@@H]2N(CCO)[C@]2(C)CCC[C@H](C)[C@H](O)[C@@H](C)C(=O)C(C)(C)[C@@H](O)CC(=O)O1` (stereo partly drawn) [compound 27, (1S,3S,7S,10R,11S,12S,16R)-7,11-Dihydroxy-17-(2-hydroxyethyl)-8,8,10,12,16-pentamethyl-3-[(1E)-1-(1,2,5-oxadiazol-3-yl)prop-1-en-2-yl]-4-oxa-17-azabicyclo[14.1.0]heptadecane-5,9-dione], the EC50 with Tubulin was above 60000 nM. Besides, the GI50 in the assay on MCF-7 was 140 nM; with OVCAR-8 it was 580 nM; in the assay with NCI/ADR-RES, above 5000 nM; in the assay on MDA-MB-435 it was 120 nM; in the assay on SNB-75 it was 450 nM. The IC50 in the assay with MES SA was 38.9 nM; with MES SA DX, at least 2500 nM; in the assay on HEK 293T, 11.7 nM.

On to `C/C(=C\c1cnsn1)[C@@H]1C[C@@H]2N(CCO)[C@]2(C)CCC[C@H](C)[C@H](O)[C@@H](C)C(=O)C(C)(C)[C@@H](O)CC(=O)O1` (stereo partly drawn) [compound 28, (1S,3S,7S,10R,11S,12S,16R)-7,11-Dihydroxy-17-(2-hydroxyethyl)-8,8,10,12,16-pentamethyl-3-[(1E)-1-(1,2,5-thiadiazol-3-yl)prop-1-en-2-yl]-4-oxa-17-azabicyclo[14.1.0]heptadecane-5,9-dione], for which the EC50 in the assay on Tubulin came out at 39000 nM. The GI50 in the assay on MCF-7 came to 4.5 nM; in the assay on OVCAR-8, 9 nM; in the assay with NCI/ADR-RES it was 680 nM; in the assay on MDA-MB-435, 3 nM; in the assay with SNB-75, 8 nM. Moreover, the IC50 in the assay on MES SA was 4.58 nM; in the assay on MES SA DX, 264 nM; with HEK 293T, 1.93 nM.

In the assay on Tubulin, `CSc1nc(/C=C(\C)[C@@H]2C[C@@H]3N(CCS)[C@]3(C)CCC[C@H](C)[C@H](O)[C@@H](C)C(=O)C(C)(C)[C@@H](O)CC(=O)O2)cs1` (stereo partly drawn) [compound 35, (1S,3S,7S,10R,11S,12S,16R)-7,11-Dihydroxy-8,8,10,12,16-pentamethyl-3-{(1E)-1-[2-(methyl-sulfanyl)-1,3-thiazol-4-yl]prop-1-en-2-yl}-17-(2-sulfanylethyl)-4-oxa-17-azabicyclo[14.1.0]-heptadecane-5,9-dione] registered an EC50 above 60000 nM. Also, the GI50 in the assay on MCF-7 amounted to 39 nM; in the assay on OVCAR-8, 19 nM; in the assay with NCI/ADR-RES, 30 nM; in the assay with MDA-MB-435, 5.5 nM; in the assay on SNB-75, 32 nM. The figures for the IC50 in the assay on MES SA, in the assay with MES SA DX and with HEK 293T were 1.48 nM, 17 nM and 0.34 nM, respectively.

In turn, `C/C(=C\c1ccn(Cn2cccn2)n1)[C@@H]1C[C@@H]2N(CCO)[C@]2(C)CCC[C@H](C)[C@H](O)[C@@H](C)C(=O)C(C)(C)[C@@H](O)CC(=O)O1` (stereo partly drawn) [compound 25, (1S,3S,7S,10R,11S,12S,16R)-7,11-Dihydroxy-17-(2-hydroxyethyl)-8,8,10,12,16-pentamethyl-3-{(1E)-1-[1-(1H-pyrazol-1-ylmethyl)-1H-pyrazol-3-yl]prop-1-en-2-yl}-4-oxa-17-azabicyclo-[14.1.0]heptadecane-5,9-dione] yielded an EC50 in the assay on Tubulin above 60000 nM. The GI50 in the assay with MCF-7 was 32 nM; with OVCAR-8, 130 nM; in the assay with NCI/ADR-RES, above 5000 nM; in the assay with MDA-MB-435 it was 19 nM; with SNB-75, 24 nM. For the same molecule, the figures for the IC50 with MES SA, in the assay with MES SA DX and in the assay with HEK 293T were 10.3 nM, above 2500 nM and 27.7 nM, respectively.

`C/C(=C\c1csc(CCO)n1)[C@@H]1C[C@@H]2N(CCO)[C@]2(C)CCC[C@H](C)[C@H](O)[C@@H](C)C(=O)C(C)(C)[C@@H](O)CC(=O)O1` (stereo partly drawn) [compound 19, (1S,3S,7S,10R,11S,12S,16R)-7,11-Dihydroxy-17-(2-hydroxyethyl)-3-{(1E)-1-[2-(2-hydroxyethyl)-1,3-thiazol-4-yl]prop-1-en-2-yl}-8,8,10,12,16-pentamethyl-4-oxa-17-azabicyclo-[14.1.0]heptadecane-5,9-dione]: the EC50 in the assay with Tubulin is above 60000 nM. The GI50 with MCF-7 was determined as 40 nM; in the assay with OVCAR-8, 38 nM; in the assay on NCI/ADR-RES it was 4800 nM; with MDA-MB-435, 12 nM; with SNB-75, 36 nM. Besides, the IC50 was 4.98 nM with MES SA, above 1000 nM in the assay on MES SA DX and 3.39 nM in the assay with HEK 293T.

In the assay on Tubulin, `C/C(=C\c1coc(C)n1)[C@@H]1C[C@@H]2N(CCO)[C@]2(C)CCC[C@H](C)[C@H](O)[C@@H](C)C(=O)C(C)(C)[C@@H](O)CC(=O)O1` (stereo partly drawn) [compound 16, (1S,3S,7S,10R,11S,12S,16R)-7,11-Dihydroxy-17-(2-hydroxyethyl)-8,8,10,12,16-pentamethyl-3-[(1E)-1-(2-methyl-1,3-oxazol-4-yl)prop-1-en-2-yl]-4-oxa-17-azabicyclo[14.1.0]heptadecane-5,9-dione] displayed an EC50 of 38000 nM. The GI50 worked out at 17 nM with MCF-7; 39 nM in the assay on OVCAR-8; 190 nM in the assay on NCI/ADR-RES; 11 nM in the assay on MDA-MB-435; 19 nM in the assay with SNB-75. In addition, the results for the IC50 with MES SA, with MES SA DX and with HEK 293T were 2.71 nM, 79.4 nM and 0.95 nM, respectively.

Turning to `C/C(=C\c1ccn(Cn2cccn2)n1)[C@@H]1C[C@@H]2N[C@]2(C)CCC[C@H](C)[C@H](O)[C@@H](C)C(=O)C(C)(C)[C@@H](O)CC(=O)O1` [compound 33, (1S,3S,7S,10R,11S,12S,16R)-7,11-Dihydroxy-8,8,10,12,16-pentamethyl-3-{(1E)-1-[1-(1H-pyrazol-1-ylmethyl)-1H-pyrazol-3-yl]prop-1-en-2-yl}-4-oxa-17-azabicyclo[14.1.0]heptadecane-5,9-dione], the EC50 with Tubulin was above 60000 nM. Besides, the GI50 in the assay on MCF-7 was 140 nM; in the assay with OVCAR-8, 1100 nM; with NCI/ADR-RES, above 5000 nM; in the assay with MDA-MB-435 it was 160 nM; in the assay with SNB-75, 450 nM. In addition, the IC50 in the assay with MES SA was 107 nM; in the assay on MES SA DX it was above 2500 nM; with HEK 293T, 175 nM.
